The numbers were not newly measured in US10650914B2, “Fresh water acute criteria prediction method based on quantitative structure-activity relationship for metals” (Chinese Research Academy of Environmental Sciences, priority 2015, dated 2020), which cites them from elsewhere.

One series has as its system Carp. As to conditions: training set.
In a further series the test system is Daphnia magna. The settings on record: for Endpoint Index: fatality rate, 48 hours, 13° C., pH 7.6, total hardness 240 mg/L; for Observed value (log-EC50): training set of leave-one-out internal validation.

With `[Cd]` [Cadmium], the “Observed value (log-LC50)” value in the series on Carp is given as 0.331.

On to `[Cr]` [Chromium], for which the “Observed value (log-LC50)” value in the series on Carp is listed as 2.439.

Regarding `[Cu]` [Copper], the “Observed value (log-LC50)” value with Carp was 1.097. Further, in the series on Daphnia magna, the “Endpoint Index” value is recorded as 0.014 and the “Observed value (log-EC50)” value is −0.6601.

`[Fe]` [Iron]: in the series on Daphnia magna, the “Endpoint Index” value is on record as 2.92 and the “Observed value (log-EC50)” value is 1.7172.

As to `[Pb]` [Lead], in the series with Daphnia magna, the “Endpoint Index” value is given as 8.69 and the “Observed value (log-EC50)” value was 1.6231.

On to `[Ni]` [Nickel], for which, in the series on Carp, the “Observed value (log-LC50)” value is 2.246. In the series on Daphnia magna, the “Endpoint Index” value is 5.7 and the “Observed value (log-EC50)” value is reported as 1.9850.

Take `[Ag]` [Silver]: in the series on Daphnia magna, the “Endpoint Index” value is 0.014 and the “Observed value (log-EC50)” value is recorded as −0.8873.

Regarding `[Zn]` [Zinc], in the series with Carp, the “Observed value (log-LC50)” value is 2.079. Besides, in the series on Daphnia magna, the “Endpoint Index” value is 0.13 and the “Observed value (log-EC50)” value was 0.3010.
